According to the supplement of paper PMC10920090:

Tests used:
MDA-MB-231 [1] = assay: drug sensitivity score (DSS), cell viability CellTiter-Glo; higher = more sensitive; extreme values may be limits of the assay; settings: 72 h
MDA-MB-231 [2] = assay: drug sensitivity score (DSS), cytotoxicity CellTox Green; higher = more cytotoxic; extreme values may be limits of the assay; settings: 72 h
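For drug sensitivity score (DSS), cytotoxicity CellTox Green in this document: DSS summarises each dose–response curve by combining IC50, EC50, maximal inhibition and efficacy across drug concentrations.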

| SMILES | drug sensitivity score (MDA-MB-231 [1]; shRNA: shPPFIA1_1) [DSS] | drug sensitivity score (MDA-MB-231 [1]; shRNA: shScramble) [DSS] | drug sensitivity score (MDA-MB-231 [2]; shRNA: shPPFIA1_1) [DSS] | drug sensitivity score (MDA-MB-231 [2]; shRNA: shScramble) [DSS] |
| --- | --- | --- | --- | --- |
| FC(F)(F)c1ccc(/C=C/c2nc(COc3ccc(CCCCn4ccnn4)cc3)co2)cc1 [Mubritinib] | 2.1 | 2 | 0 | 0 |
| CS(=O)(=O)N1CCc2c(-c3cnc(N)nc3)nc(N3CCOCC3)nc21 | 0 | 7.7 | 0 | 0 |
| NC(=O)Nc1sc(-c2ccc(F)cc2)cc1C(N)=O [TPCA-1] | 0 | 1.9 | 0.9 | 0 |
| Nc1cc(C(F)(F)F)c(-c2cc(N3CCOCC3)nc(N3CCOCC3)n2)cn1 [Buparlisib] | 0.9 | 6.2 | 1.4 | 0 |
| CCN1CCN(c2ccc(Nc3cc(N(C)C(=O)Nc4c(Cl)c(OC)cc(OC)c4Cl)ncn3)cc2)CC1 [NVP-BGJ398] | 0 | 0 | 0 | 0 |
| CN1CCC(CNc2ccc3ncc(-c4cccc(OC(F)(F)F)c4)n3n2)CC1 [SGI-1776] | 9 | 9 | 4.9 | 4.7 |
| C=CC(=O)Nc1cc(Nc2nccc(-c3cn(C)c4ccccc34)n2)c(OC)cc1N(C)CCN(C)C [Osimertinib] | 1.2 | 3.9 | 0 | 0 |
| O=c1[nH]c(C2CCCN2)nc2c1oc1ccc(Cl)cc12 (stereo not drawn) | 0 | 0 | 0 | 0 |
| CCc1cncnc1N1CCN(Cc2nc3ccc(C(F)(F)F)cc3[nH]2)CC1 | 0 | 1.3 | 0.6 | 0 |
| CS(=O)(=O)c1ccc(C(=O)Nc2ccc(Cl)c(-c3ccccn3)c2)c(Cl)c1 [Vismodegib] | 0 | 0 | 2.2 | 0 |
| O=C(c1ccc(/C=C/c2n[nH]c3ccccc23)cc1)N1CCNCC1 [KW-2449] | 0 | 0 | 0 | 0 |
| CN[C@@H]1C[C@H]2O[C@@](C)([C@@H]1OC)n1c3ccccc3c3c4c(c5c6ccccc6n2c5c31)C(=O)N[C@H]4O [UCN-01] | 17 | 21.4 | 16.6 | 12.2 |
| CN(C)C(=O)c1cc2cnc(Nc3ccc(N4CCNCC4)cn3)nc2n1C1CCCC1 [Ribociclib] | 0 | 0 | 0 | 0 |
| CO[C@H]1C(=O)[C@]2(C)[C@@H](OC)C[C@H]3OC[C@@]3(OC(C)=O)[C@H]2[C@H](OC(=O)c2ccccc2)[C@]2(O)C[C@H](OC(=O)[C@H](O)[C@@H](NC(=O)OC(C)(C)C)c3ccccc3)C(C)=C1C2(C)C [Cabazitaxel] | 16.4 | 11.5 | 0 | 9.7 |
| Cc1[nH]c(/C=C2\C(=O)Nc3ccccc32)c(C)c1CCC(=O)O [Orantinib] | 0 | 0 | 10.8 | 16.2 |
| CCC/C=C/C=C/C(=O)O[C@H]1/C(=C/C(=O)OC)C[C@H]2C[C@H]([C@@H](C)O)OC(=O)C[C@H](O)C[C@@H]3C[C@H](OC(C)=O)C(C)(C)[C@](O)(C[C@@H]4C/C(=C/C(=O)OC)C[C@H](/C=C/C(C)(C)[C@]1(O)O2)O4)O3 [Bryostatin 1] | 17.2 | 3.3 | 0 | 0 |
| CN(C)C1CCN(C(=O)c2ccc(NC(=O)Nc3ccc(-c4nc(N5CCOCC5)nc(N5CCOCC5)n4)cc3)cc2)CC1 [Gedatolisib] | 7.2 | 20.8 | 0 | 0 |
| Nc1ccccc1NC(=O)c1ccc(CNC(=O)OCc2cccnc2)cc1 [Entinostat] | 0.3 | 4.5 | 3.9 | 0.2 |
| CN[C@@H](C)C(=O)N[C@H](C(=O)N1CCC[C@H]1c1nc(C(=O)c2ccc(F)cc2)cs1)C1CCCCC1 [LCL161] | 20.5 | 2.5 | 40.9 | 24.4 |
| COc1ccc(-c2cc3c(C)nc(N)nc3n([C@H]3CC[C@H](OCCO)CC3)c2=O)cn1 | 0 | 6.2 | 1.1 | 2.4 |
| Cn1ncc(Cl)c1-c1cc(C(=O)N[C@H](CN)Cc2cccc(F)c2)sc1Cl [Afuresertib] | 0.5 | 1.6 | 0 | 0 |

| SMILES | drug sensitivity score (MDA-MB-231 [1]; shRNA: shPPFIA1_1) [DSS] | drug sensitivity score (MDA-MB-231 [1]; shRNA: shScramble) [DSS] | drug sensitivity score (MDA-MB-231 [2]; shRNA: shPPFIA1_1) [DSS] | drug sensitivity score (MDA-MB-231 [2]; shRNA: shScramble) [DSS] |
| --- | --- | --- | --- | --- |
| C[C@@H](Nc1cc(F)cc(F)c1)c1cc(C(=O)N(C)C)cc2c(=O)cc(N3CCOCC3)oc12 [AZD-8186] | 0 | 1.7 | 0 | 0 |
| CC(C)Oc1ccc(C(=O)N[C@H](CNC(=O)CN(C)C)Cc2ccc(-c3cn4cccc([C@H](C)O)c4n3)cc2)cc1Cl | 3.5 | 13.6 | 10.3 | 6.2 |
| Nc1cccc2c1C(=O)N(C1CCC(=O)NC1=O)C2=O (stereo not drawn) [Pomalidomide] | 0 | 0 | 0 | 0 |
| CS(=O)(=O)c1ccc(-c2cnc(N)c(C(=O)Nc3ccccc3)n2)cc1 [VE-821] | 0 | 0 | 0 | 0 |
| COC[C@H](NC(=O)c1cnc(C)s1)C(=O)N[C@@H](COC)C(=O)N[C@@H](Cc1ccccc1)C(=O)[C@@]1(C)CO1 [Oprozomib] | 11.4 | 11.5 | 17 | 16.8 |
| COc1cccc2c1c(O)c(C(=O)N(C)c1ccc(C(F)(F)F)cc1)c(=O)n2C [Tasquinimod] | 0 | 3.4 | 0 | 0 |
| Cc1c(NC(=O)OC[C@@H]2COCCN2)cn2ncnc(Nc3ccc4c(cnn4Cc4cccc(F)c4)c3)c12 | 1.2 | 2.4 | 0 | 0 |
| CNCc1ccc(-c2[nH]c3cc(F)cc4c3c2CCNC4=O)cc1 [Rucaparib] | 0 | 0 | 0 | 0 |
| O=C(Nc1cccc(C(F)(F)F)c1)Nc1cc(S(=O)(=O)NC2CC2)ccc1-c1ccsc1 [AGI-6780] | 0 | 0 | 0.5 | 0 |
| CCn1c(C(=O)N(C2CC2)C2CC2)cc2c3c(ncn3C)c(Nc3cc(C)n(C)n3)nc21 | 0 | 0 | 0 | 0 |
| COc1ncc(-c2ccc3nccc(-c4ccnnc4)c3c2)cc1NS(=O)(=O)c1ccc(F)cc1F [Omipalisib] | 0 | 10.9 | 0 | 0 |
| CCN(CC)C(=S)SSC(=S)N(CC)CC [Disulfiram] | 6.5 | 14.3 | 6.4 | 7 |
| CO[C@H]1C[C@@H]2CC[C@@H](C)[C@@](O)(O2)C(=O)C(=O)N2CCCC[C@H]2C(=O)O[C@H]([C@H](C)C[C@@H]2CC[C@@H](O)[C@H](OC)C2)CC(=O)[C@H](C)/C=C(\C)[C@@H](O)[C@@H](OC)C(=O)[C@H](C)C[C@H](C)/C=C/C=C/C=C/1C [Sirolimus] | 0 | 6 | 0 | 0 |
| CCc1cc(Nc2nccc(-c3c(-c4ccc(OC)c(C(=O)Nc5c(F)cccc5F)c4)nc4ccccn34)n2)c(OC)cc1N1CCC(N2CCN(S(C)(=O)=O)CC2)CC1 | 2.9 | 2.4 | 0 | 0 |
| CCCS(=O)(=O)Nc1ccc(F)c(C(=O)c2c[nH]c3ncc(-c4ccc(Cl)cc4)cc23)c1F [Vemurafenib] | 0 | 0 | 0 | 1.8 |
| CC(C)N(C[C@H]1O[C@@H](n2cnc3c(N)ncnc32)[C@H](O)[C@@H]1O)[C@H]1C[C@@H](CCc2nc3cc(C(C)(C)C)ccc3[nH]2)C1 [Pinometostat] | 0 | 0 | 0 | 0 |
| CN1CCN(c2ccc3nc(-c4c(N)c5c(F)cccc5[nH]c4=O)[nH]c3c2)CC1 [Dovitinib] | 0 | 0 | 0 | 0 |
| Oc1ncnc2[nH]ncc12 [Allopurinol] | 0 | 0 | 0 | 0 |
| CNc1nc(Nc2cn(C(C)(C)C#N)nc2C)ncc1C(F)(F)F [GNE-0877] | 0 | 0 | 0 | 0 |
| Cn1nnc2c(C(N)=O)ncn2c1=O [Temozolomide] | 1.8 | 2.6 | 0 | 0 |
| O=C(O)c1ccc(O)c2ncccc12 [IOX-1] | 0 | 0 | 0 | 0 |

| SMILES | drug sensitivity score (MDA-MB-231 [1]; shRNA: shPPFIA1_1) [DSS] | drug sensitivity score (MDA-MB-231 [1]; shRNA: shScramble) [DSS] | drug sensitivity score (MDA-MB-231 [2]; shRNA: shPPFIA1_1) [DSS] | drug sensitivity score (MDA-MB-231 [2]; shRNA: shScramble) [DSS] |
| --- | --- | --- | --- | --- |
| COc1ccc(C[C@H](NC(=O)[C@H](C)NC(=O)CN2CCOCC2)C(=O)N[C@@H](Cc2ccccc2)C(=O)C2(C)CO2)cc1 (stereo in doubt) [ONX-0914] | 17.1 | 18.1 | 19.1 | 18.6 |
| Nc1nc(OCc2cc(Br)cs2)c2[nH]cnc2n1 [Lomeguatrib] | 0.1 | 0 | 0 | 0 |
| COc1ccc(Cn2ccc3ccc(C(=O)NO)cc32)cc1 | 0 | 0 | 10.5 | 0 |
| O=NN(CCCl)C(=O)NC1CCCCC1 [Lomustine] | 0 | 0 | 0 | 0 |
| Cc1cnc(NC(=O)Nc2cc(Br)c(C)cc2OC[C@@H]2CNCCO2)cn1 [Rabusertib] | 5.3 | 2 | 0 | 0 |
| C[C@@H](Oc1cc(-c2cnn(C3CCNCC3)c2)cnc1N)c1c(Cl)ccc(F)c1Cl [Crizotinib] | 0.1 | 0 | 0 | 0 |
| Oc1ncc(N(CCCl)CCCl)c(O)n1 [Uramustine] | 0 | 0 | 0 | 0 |
| CO[C@H]1C[C@@H]2CC[C@@H](C)[C@@](O)(O2)C(=O)C(=O)N2CCCC[C@H]2C(=O)O[C@H]([C@H](C)C[C@@H]2CC[C@@H](OP(C)(C)=O)[C@H](OC)C2)CC(=O)[C@H](C)/C=C(\C)[C@@H](O)[C@@H](OC)C(=O)[C@H](C)C[C@H](C)/C=C/C=C/C=C/1C [Ridaforolimus] | 0 | 1.6 | 0 | 0 |
| Cc1ccc(-c2cc(C(F)(F)F)nn2-c2ccc(S(N)(=O)=O)cc2)cc1 [Celecoxib] | 0 | 0 | 0 | 0 |
| Cc1ncc(-c2ccnc(Nc3ccc(S(C)(=O)=O)cc3)n2)n1C(C)C [AZD-5438] | 0.1 | 2.3 | 2.7 | 0.5 |
| NC(=S)N/N=C/c1ncccc1N [Triapine] | 0 | 1.2 | 0 | 0 |
| Cc1cc2c(F)c(Oc3ncnn4cc(OC[C@@H](C)O)c(C)c34)ccc2[nH]1 [Brivanib] | 0 | 0 | 0 | 0 |
| CC(=O)O[C@H]1C(=O)[C@@]2(C)[C@H]([C@H](OC(=O)c3ccccc3)[C@]3(O)C[C@H](OC(=O)[C@H](O)[C@@H](NC(=O)c4ccccc4)c4ccccc4)C(C)=C1C3(C)C)[C@]1(OC(C)=O)CO[C@@H]1C[C@@H]2O [Paclitaxel] | 0 | 12.8 | 8.8 | 9.2 |
| COc1cc(Nc2c(C#N)cnc3cc(OCCCN4CCN(C)CC4)c(OC)cc23)c(Cl)cc1Cl [Bosutinib] | 6.3 | 9.3 | 6.2 | 6.3 |
| Cc1ccc(NC(=O)c2ccc(CN3CCN(C)CC3)cc2)cc1Nc1nccc(-c2cccnc2)n1 [Imatinib] | 1.5 | 0 | 1.4 | 0 |
| CCCCc1nc2cc(/C=C/C(=O)NO)ccc2n1CCN(CC)CC [Pracinostat] | 10.6 | 11.9 | 8.1 | 8.5 |
| Cc1cc(Nc2cc(N3CCN(C)CC3)nc(/C=C/c3ccccc3)n2)n[nH]1 [ENMD-2076] | 3.8 | 8.8 | 2 | 0.9 |
| Cc1cc(Nc2ncc(Cl)c(Nc3ccccc3S(=O)(=O)C(C)C)n2)c(OC(C)C)cc1C1CCNCC1 [Ceritinib] | 0 | 1.2 | 0.9 | 0 |
| C[C@@]1(C(=O)Nc2ccc(F)nc2)CCCN1c1nc(Nc2cc(C3CC3)n[nH]2)c2cccn2n1 | 0.2 | 3.7 | 0.8 | 0 |
| CCc1nc(-c2cccc(C)c2)c(-c2ccnc(NC(=O)c3ccccc3)c2)s1 [TAK-715] | 0 | 0.8 | 0.3 | 0 |
